For one test, the target named is p70S6K (T412E mutant) (Homo sapiens (Human), UniProt P23443, T412E). Put plainly: p70S6K enzyme assay. Format: biochemical. The conditions noted are these: 24 μM ATP, 90 min at 25° C., Caliper mobility shift. The protocol:
p70S6K inhibitor compounds were diluted and plated in 96 well plates. A reaction mixture including the following components were then added to the compound plate to initiate the enzyme reaction: p70S6K (3 nM, T412E mutant, Millipore) was mixed with 24 μM ATP in an assay buffer containing 100 mM Hepes (pH 7.5), 5 mM MgCl2, 1 mM DTT, 0.015% Brij and 1 μM of the substrate peptide FITC-AHA-[…]-OH (derived from the S6 ribosomal protein sequence, FITC=fluorescein isothiocyanate, AHA=6-aminohexanoic acid). The reaction was incubated for 90 min at 25° C., before the addition of 10 mM EDTA to stop the reaction. The proportion of substrate and product (phosphorylated) peptide was analyzed on a Caliper Life Sciences Lab Chip 3000, using a pressure of −1.4 psi, and upstream and downstream voltages of −3000 and −700, respectively. Product peaks were resolved before substrate peaks on the resulting chromatograms. To assess the inhibitory potential of the compounds, IC50 values were determined, as shown above.

The target in another test is His-AKT (Full Length) (Homo sapiens (Human), UniProt P31749). The test can be described thus: AKT/PKB kinase assay. Format: biochemical. To be noted: 160 μM ATP, 90 min at 25° C., Caliper mobility shift. The protocol: In order to measure AKT inhibition in the Caliper Life Sciences LC3000, a TTP Mosquito liquid handling instrument was used to place 125 nl of the appropriate concentration of inhibitor in 100% DMSO (for a dose response curve calculation) into each well of a 384-well plate. To this reaction, the following components were added to a final volume of 12.5 μl: • 0.1 ng/μl His-AKT (Full Length) (Invitrogen, Part # P2999, Lot #641228C); • 160 μM ATP (Fluka, 02055); • 1 mM DTT (Sigma, D0632); • 1 mM MgCl2 (Sigma, M1028); • 1 μM substrate peptide (sequence FITC-AHA-[…]-NH2), synthesized by • Tufts Peptide Synthesis service; • 100 mM HEPES pH 7.5 (Calbiochem, 391338); and • 0.015% Brij-35 (Sigma, B4184).
The reaction was incubated for 90 min at 25° C., and then stopped by the addition of 70 μl of Stop buffer (100 mM HEPES pH 7.5, 0.015% Brij-35, 10 mM EDTA (Sigma, E7889)). The plate was read on a Caliper LC 3000 in an Off-Chip mobility shift assay format, using the following parameters for a 12-sipper chip: screening pressure −2.3 psi, upstream voltage −500, and downstream voltage −3000. These conditions cause unphosphorylated substrate and phosphorylated product peptide to resolve as separate peaks allowing direct measurement of percentage of conversion of substrate to product. The percent conversion was plotted against concentration of inhibitor to produce a sigmoidal dose response curve, from which an IC50 was calculated.

Where only a bound is given, the exact number is not on record here.

His-AKT (Full Length), sequence (P31749 whole entry): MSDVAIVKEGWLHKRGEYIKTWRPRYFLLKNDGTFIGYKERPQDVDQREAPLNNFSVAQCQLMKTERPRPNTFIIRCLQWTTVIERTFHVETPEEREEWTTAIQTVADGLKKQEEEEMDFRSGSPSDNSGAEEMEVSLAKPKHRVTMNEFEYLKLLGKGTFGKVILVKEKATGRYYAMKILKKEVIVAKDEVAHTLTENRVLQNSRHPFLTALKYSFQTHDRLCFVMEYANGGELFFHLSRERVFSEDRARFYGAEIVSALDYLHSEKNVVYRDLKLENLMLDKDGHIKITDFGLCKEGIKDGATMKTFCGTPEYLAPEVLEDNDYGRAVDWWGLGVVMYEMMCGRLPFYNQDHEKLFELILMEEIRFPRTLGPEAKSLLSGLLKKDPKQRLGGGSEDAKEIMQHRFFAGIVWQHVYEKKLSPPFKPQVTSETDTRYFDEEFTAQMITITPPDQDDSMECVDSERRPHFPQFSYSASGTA
p70S6K (T412E mutant), sequence (P23443 whole entry T412E): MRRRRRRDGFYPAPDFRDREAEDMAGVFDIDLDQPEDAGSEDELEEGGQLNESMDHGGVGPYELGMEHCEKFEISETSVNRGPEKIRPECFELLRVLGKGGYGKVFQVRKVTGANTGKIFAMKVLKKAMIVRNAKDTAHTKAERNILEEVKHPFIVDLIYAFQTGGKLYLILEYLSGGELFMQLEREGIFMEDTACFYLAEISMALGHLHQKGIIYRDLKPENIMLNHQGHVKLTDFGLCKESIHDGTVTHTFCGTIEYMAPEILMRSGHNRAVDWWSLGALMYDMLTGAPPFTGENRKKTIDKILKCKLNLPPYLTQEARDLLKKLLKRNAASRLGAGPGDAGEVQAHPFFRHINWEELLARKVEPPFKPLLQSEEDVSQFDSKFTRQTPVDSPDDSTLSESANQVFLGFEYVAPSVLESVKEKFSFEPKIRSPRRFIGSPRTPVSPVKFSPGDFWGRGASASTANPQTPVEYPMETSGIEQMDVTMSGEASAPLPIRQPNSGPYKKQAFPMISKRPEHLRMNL

Take `CN(C)C[C@@H](Nc1ncnc2c(C(N)=O)ccnc12)c1ccc(F)c(C(F)(F)F)c1` [Compound 50, 4-[(S)-2-Dimethylamino-1-(4-fluoro-3-trifluoromethyl-phenyl)-ethylamino]-pyrido[3,2-d]pyrimidine-8-carboxylic Acid Amide]: the values for the IC50 on p70S6K (T412E mutant) and at His-AKT (Full Length) were less than 25 nM and 25 to 100 nM, respectively.

Regarding `CNC[C@@H](Nc1ncnc2c(C(N)=O)ccnc12)c1ccc(F)c(C(F)F)c1` [Compound 51, 4-[(S)-1-(3-Difluoromethyl-4-fluoro-phenyl)-2-methylamino-ethylamino]-pyrido[3,2-d]pyrimidine-8-carboxylic Acid Amide], the IC50 at p70S6K (T412E mutant) and at His-AKT (Full Length) was less than 25 nM in each case.

In the case of `CC(C)NC[C@@H](Nc1ncnc2c(C(N)=O)ccnc12)c1ccc(F)c(C(F)(F)F)c1` [Compound 52, 4-[(S)-1-(4-Fluoro-3-trifluoromethyl-phenyl)-2-isopropylamino-ethylamino]-pyrido[3,2-d]pyrimidine-8-carboxylic Acid Amide], the IC50 (as a rule, the point on the concentration scale where inhibition reaches its midpoint) on p70S6K (T412E mutant) lay within 25 to 100 nM; at His-AKT (Full Length), 101 to 500 nM.

With `CC(C)NC[C@@H](Nc1ncnc2c(C(N)=O)ccnc12)c1ccc(Cl)c(F)c1` [Compound 54, 4-[(S)-1-(4-Chloro-3-fluoro-phenyl)-2-isopropylamino-ethylamino]-pyrido[3,2-d]pyrimidine-8-carboxylic Acid Amide], the IC50 fell in the range of 25 to 100 nM on p70S6K (T412E mutant) and 101 to 500 nM on His-AKT (Full Length).

On to `CC(C)NC[C@@H](Nc1ncnc2c(C(N)=O)ccnc12)c1ccc(Cl)c(C(F)(F)F)c1` [Compound 55, 4-[(S)-1-(4-Chloro-3-trifluoromethyl-phenyl)-2-isopropylamino-ethylamino]-pyrido[3,2-d]pyrimidine-8-carboxylic Acid Amide], for which the IC50 at p70S6K (T412E mutant) and on His-AKT (Full Length) was 101 to 500 nM in each case.

Take `CCNC[C@@H](Nc1ncnc2c(C(N)=O)ccnc12)c1ccc(F)c(C(F)(F)F)c1` [Compound 56, 4-[(S)-2-Ethylamino-1-(4-fluoro-3-trifluoromethyl-phenyl)-ethylamino]-pyrido[3,2-d]pyrimidine-8-carboxylic Acid Amide]: the IC50 at p70S6K (T412E mutant) is less than 25 nM; on His-AKT (Full Length) it was 25 to 100 nM.

In the case of `CCNC[C@@H](Nc1ncnc2c(C(N)=O)ccnc12)c1cc(F)c(F)cc1F` [Compound 58, 4-[(S)-2-Ethylamino-1-(2,4,5-trifluoro-phenyl)-ethylamino]-pyrido[3,2-d]pyrimidine-8-carboxylic Acid Amide], the IC50 at p70S6K (T412E mutant) is 25 to 100 nM; at His-AKT (Full Length), 101 to 500 nM.

In the case of `CCNC[C@@H](Nc1ncnc2c(C(N)=O)ccnc12)c1ccc(C(F)(F)F)c(C(F)(F)F)c1` [Compound 59, 4-[(S)-1-(3,4-Bis-trifluoromethyl-phenyl)-2-ethylamino-ethylamino]-pyrido[3,2-d]pyrimidine-8-carboxylic Acid Amide], the IC50 at p70S6K (T412E mutant) and at His-AKT (Full Length) was less than 25 nM each time.

`CNC[C@@H](Nc1ncnc2c(C(N)=O)ccnc12)c1cc(F)c(F)cc1F` [Compound 60, 4-[(S)-2-Methylamino-1-(2,4,5-trifluoro-phenyl)-ethylamino]-pyrido[3,2-d]pyrimidine-8-carboxylic Acid Amide]: the IC50 at p70S6K (T412E mutant) and at His-AKT (Full Length) was 25 to 100 nM each time.

For the molecule `NC(=O)c1ccnc2c(N[C@H](CN3CCC3)c3ccc(C(F)(F)F)c(C(F)(F)F)c3)ncnc12` [Compound 63, 4-[(S)-2-Azetidin-1-yl-1-(3,4-bis-trifluoromethyl-phenyl)-ethylamino]-pyrido[3,2-d]pyrimidine-8-carboxylic Acid Amide], the concentration for half-maximal inhibition (IC50) at p70S6K (T412E mutant) and at His-AKT (Full Length) was less than 25 nM each time.

With `CNC[C@@H](Nc1ncnc2c(C(N)=O)ccnc12)c1cccc(Cl)c1` [Compound 64, 4-[(S)-1-(3-Chloro-phenyl)-2-methylamino-ethylamino]-pyrido[3,2-d]pyrimidine-8-carboxylic Acid Amide], the IC50 at p70S6K (T412E mutant) and at His-AKT (Full Length) was less than 25 nM throughout.

Regarding `CNC[C@@H](Nc1ncnc2c(C(N)=O)ccnc12)c1cccc(Br)c1` [Compound 65, 4-[(S)-1-(3-Bromo-phenyl)-2-methylamino-ethylamino]-pyrido[3,2-d]pyrimidine-8-carboxylic Acid Amide], the IC50 on p70S6K (T412E mutant) and at His-AKT (Full Length) was less than 25 nM each time.

For the molecule `CNC[C@@H](Nc1ncnc2c(C(N)=O)ccnc12)c1cccc(F)c1` [Compound 66, 4-[(S)-1-(3-Fluoro-phenyl)-2-methylamino-ethylamino]-pyrido[3,2-d]pyrimidine-8-carboxylic Acid Amide], the IC50 on p70S6K (T412E mutant) and on His-AKT (Full Length) was less than 25 nM in each case.

Consider `CNC[C@@H](Nc1ncnc2c(C(N)=O)ccnc12)c1ccc(F)c(C)c1` [Compound 67, 4-[(S)-1-(4-Fluoro-3-methyl-phenyl)-2-methylamino-ethylamino]-pyrido[3,2-d]pyrimidine-8-carboxylic Acid Amide], for which the IC50 at p70S6K (T412E mutant) and at His-AKT (Full Length) was less than 25 nM throughout.

For the molecule `NC(=O)c1ccnc2c(N[C@H](CN3CCC3)c3cccc(F)c3)ncnc12` [Compound 68, 4-[(S)-2-Azetidin-1-yl-1-(3-fluoro-phenyl)-ethylamino]-pyrido[3,2-d]pyrimidine-8-carboxylic Acid Amide], the IC50 at p70S6K (T412E mutant) is less than 25 nM; on His-AKT (Full Length) it was 25 to 100 nM.

As to `NC(=O)c1ccnc2c(N[C@H](CN3CC(F)C3)c3ccc(Cl)c(C(F)(F)F)c3)ncnc12` [Compound 69, 4-[(S)-1-(4-Chloro-3-trifluoromethyl-phenyl)-2-(3-fluoro-azetidin-1-yl)-ethylamino]-pyrido[3,2-d]pyrimidine-8-carboxylic Acid Amide], the IC50 on p70S6K (T412E mutant) was less than 25 nM; on His-AKT (Full Length) it was 25 to 100 nM.

For `NC(=O)c1ccnc2c(N[C@H](CN3CC(O)C3)c3ccc(Cl)c(C(F)(F)F)c3)ncnc12` [Compound 70, 4-[(S)-1-(4-Chloro-3-trifluoromethyl-phenyl)-2-(3-hydroxy-azetidin-1-yl)-ethylamino]-pyrido[3,2-d]pyrimidine-8-carboxylic Acid Amide], the IC50 at p70S6K (T412E mutant) is less than 25 nM; at His-AKT (Full Length) it was 25 to 100 nM.

As to `NC(=O)c1ccnc2c(N[C@@H](CN3CCC3)c3ccc(Cl)c(C(F)(F)F)c3)ncnc12` [Compound 71, 4-[(R)-2-Azetidin-1-yl-1-(4-chloro-3-trifluoromethyl-phenyl)-ethylamino]-pyrido[3,2-d]pyrimidine-8-carboxylamide], the IC50 on p70S6K (T412E mutant) is 501 to 1000 nM; on His-AKT (Full Length) it was greater than 1000 nM.

Take `CNC[C@@H](Nc1ncnc2c(C(N)=O)ccnc12)c1ccc(Cl)c(C(F)(F)F)c1` [Compound 72, 4-[(S)-1-(4-Chloro-3-trifluoromethyl-phenyl)-2-methylamino-ethylamino]-pyrido[3,2-d]pyrimidine-8-carboxylic Acid Amide]: the IC50 on p70S6K (T412E mutant) and on His-AKT (Full Length) was less than 25 nM each time.

For `NC(=O)c1ccnc2c(N[C@H](CN3CCC3)c3ccc(OC(F)(F)F)c(Cl)c3)ncnc12` [Compound 73, 4-[(S)-2-Azetidin-1-yl-1-(3-chloro4-trifluoromethoxy-phenyl)-ethylamino]-pyrido[3,2-d]pyrimidine-8-carboxylamide], the IC50 on p70S6K (T412E mutant) is less than 25 nM; at His-AKT (Full Length) it was 25 to 100 nM.

As to `CNC[C@@H](Nc1ncnc2c(C(N)=O)ccnc12)c1ccc(OC(F)(F)F)c(Cl)c1` [Compound 74, 4-[(S)-1-(3-Chloro-4-trifluoromethoxy-phenyl)-2-methylamino-ethylamino]-pyrido[3,2-d]pyrimidine-8-carboxylamide], the results for the IC50 at p70S6K (T412E mutant) and at His-AKT (Full Length) were less than 25 nM and 25 to 100 nM, respectively.

Regarding `CNC[C@@H](Nc1ncnc2c(C(N)=O)ccnc12)c1ccc(Cl)c(Cl)c1` [Compound 75, 4-[(S)-1-(3,4-Dichloro-phenyl)-2-methylamino-ethylamino]-pyrido[3,2-d]pyrimidine-8-carboxylamide], the IC50 on p70S6K (T412E mutant) and on His-AKT (Full Length) was less than 25 nM throughout.

As for `CNC[C@@H](Nc1ncnc2c(C(N)=O)ccnc12)c1ccc(C)c(C(F)(F)F)c1` [Compound 76, 4-[(S)-2-Methylamino-1-(4-methyl-3-trifluoromethyl-phenyl)-ethylamino]-pyrido[3,2-d]pyrimidine-8-carboxylic Acid Amide], the 50% inhibitory concentration (IC50) on p70S6K (T412E mutant) and on His-AKT (Full Length) was less than 25 nM throughout.
